What follows are compounds tested on récepteurs des benzodiazépines (assay: In vivo measurement of binding to benzodiazepine receptors, method of Goeders and Kuhar).
Excerpt: La mesure in vivo de la liaison aux récepteurs des benzodiazépines a été effectuée selon la méthode décrite par Goeders N.E. et Kuhar M.J. Life, Sciences (1985) 37, 345. TABLEAU II
In the case of CN1Cc2c(-c3cc(C4CC4)no3)ncn2-c2ccccc2C1=O [Exemple 5, 3-(3-cyclopropylisoxazol-5-yl) 5,6-dihydro 5-méthyl 6-oxo-4H-imidazo [1,5-a] [1,4]-benzodiazépine], the “liaison in vivo DE 50 mg/kg IP” value is reported as 2,0 mg/kg. With Cc1cc(-c2ncn3c2CN(C)C(=O)c2ccccc2-3)on1 [Exemple 7, 5,6-dihydro 5-méthyl 6-oxo 3-(3-méthylisoxazol-5-yl) 4H-imidazo [1,5-a] [1,4]-benzodiazépine] the “liaison in vivo DE 50 mg/kg IP” value was 0,62 mg/kg. For CCc1cc(-c2ncn3c2CN(C)C(=O)c2ccccc2-3)on1 [Exemple 8, 5,6-dihydro 5-méthyl 6-oxo 3-(3-éthylisoxazol-5-yl) 4H-imidazo [1,5-a] [1,4]-benzodiazépine], the “liaison in vivo DE 50 mg/kg IP” value was > 3,0 mg/kg.

— patent EP0423032A2, “Process for the preparation of isoxazolyl and isothiazolyl imidazobenzodiazepines, new derivatives thus obtained, their use as medicaments and compositions containing them” (ROUSSEL-UCLAF, priority 1989, dated 1991)
